Test results from ChEMBL document CHEMBL1938343, “Lead optimisation of selective non-zinc binding inhibitors of MMP13. Part 2” (Bioorg Med Chem Lett, 2012).

How the values were obtained:
[1] = target: Collagenase 3 (Homo sapiens, UniProt P45452); assay: Inhibition of recombinant human MMP13 using Mca-Pro-cyclohexyl-Ala-Gly-Nva-His-Ala- Dap(Dnp)-NH2 as substrate by fluorometric analysis; conditions: read-out: IC50
[2] = target: 72 kDa type IV collagenase (Homo sapiens, UniProt P08253); assay: Inhibition of MMP2 using Mca-Pro-cyclohexyl-Ala-Gly-Nva-His-Ala- Dap(Dnp)-NH2 as substrate by fluorometric analysis; conditions: read-out: IC50
Sequence of 72 kDa type IV collagenase (P08253 whole entry): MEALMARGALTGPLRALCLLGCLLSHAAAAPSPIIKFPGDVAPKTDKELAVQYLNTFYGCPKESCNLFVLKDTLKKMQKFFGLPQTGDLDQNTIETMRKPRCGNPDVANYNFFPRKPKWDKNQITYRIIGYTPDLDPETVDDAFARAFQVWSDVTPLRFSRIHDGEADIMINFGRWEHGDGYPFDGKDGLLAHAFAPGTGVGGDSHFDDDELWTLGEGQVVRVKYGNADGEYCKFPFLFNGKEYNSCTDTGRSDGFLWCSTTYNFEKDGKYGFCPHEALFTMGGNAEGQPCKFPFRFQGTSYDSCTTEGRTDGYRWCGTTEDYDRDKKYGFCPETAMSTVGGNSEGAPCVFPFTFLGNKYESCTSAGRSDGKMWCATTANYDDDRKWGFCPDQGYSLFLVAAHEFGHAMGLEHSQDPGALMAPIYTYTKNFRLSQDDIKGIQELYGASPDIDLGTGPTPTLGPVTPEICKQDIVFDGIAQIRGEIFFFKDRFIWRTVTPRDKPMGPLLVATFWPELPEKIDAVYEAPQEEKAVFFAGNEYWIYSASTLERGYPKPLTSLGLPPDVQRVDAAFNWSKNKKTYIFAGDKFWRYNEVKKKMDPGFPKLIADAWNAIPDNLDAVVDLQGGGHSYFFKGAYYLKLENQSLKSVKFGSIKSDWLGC

[3] = target: Matrix metalloproteinase-14 (Homo sapiens, UniProt P50281); assay: Inhibition of MMP14 using Mca-Pro-cyclohexyl-Ala-Gly-Nva-His-Ala- Dap(Dnp)-NH2 as substrate by fluorometric analysis
[4] = Fraction unbound in dog; format: ADME, organism-based, Canis lupus familiaris; conditions: in vivo
[5] = Volume of distribution at steady state in rat at 2 mg/kg, iv; format: ADME, organism-based; set-up: dose 2 mg/kg, route intravenous; conditions: in vivo, read-out: Vdss
[6] = Half life in dog at 1 mg/kg, iv and 1 mg/kg, po; format: ADME, organism-based, Canis lupus familiaris; conditions: in vivo
[7] = Oral bioavailability in dog; format: ADME, organism-based, Canis lupus familiaris; conditions: in vivo
[8] = Cytotoxicity in mouse spleen macrophages assessed as phospholipidosis; conditions: Macrophage
[9] = Intrinsic clearance in human microsomes; format: ADME, Microsome
[10] = target: Matrix metalloproteinase-9 (Homo sapiens, UniProt P14780); assay: Inhibition of MMP9 using Mca-Pro-cyclohexyl-Ala-Gly-Nva-His-Ala- Dap(Dnp)-NH2 as substrate by fluorometric analysis
Sequence of Matrix metalloproteinase-9 (P14780 whole entry): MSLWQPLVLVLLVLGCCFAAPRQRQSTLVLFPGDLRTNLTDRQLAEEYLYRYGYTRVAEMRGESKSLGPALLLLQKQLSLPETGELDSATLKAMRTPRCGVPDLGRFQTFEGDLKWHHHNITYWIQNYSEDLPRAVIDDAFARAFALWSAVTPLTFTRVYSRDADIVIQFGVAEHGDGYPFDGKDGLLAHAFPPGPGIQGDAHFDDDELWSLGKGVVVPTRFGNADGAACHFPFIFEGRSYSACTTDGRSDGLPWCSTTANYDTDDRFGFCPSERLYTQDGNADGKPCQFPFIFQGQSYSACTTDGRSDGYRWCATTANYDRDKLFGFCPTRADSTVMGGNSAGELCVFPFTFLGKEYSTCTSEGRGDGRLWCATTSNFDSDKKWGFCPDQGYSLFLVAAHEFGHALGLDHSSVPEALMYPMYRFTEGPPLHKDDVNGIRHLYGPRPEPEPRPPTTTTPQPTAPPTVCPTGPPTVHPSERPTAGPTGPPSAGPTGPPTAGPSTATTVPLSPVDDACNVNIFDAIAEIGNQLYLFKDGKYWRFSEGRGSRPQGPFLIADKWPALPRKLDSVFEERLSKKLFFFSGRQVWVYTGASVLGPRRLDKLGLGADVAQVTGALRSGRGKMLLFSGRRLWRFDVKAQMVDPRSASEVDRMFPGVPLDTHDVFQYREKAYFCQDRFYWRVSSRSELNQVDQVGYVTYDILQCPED

[11] = Oral bioavailability in rat; format: ADME, organism-based; conditions: in vivo
[12] = Intrinsic clearance in Sprague-Dawley rat hepatocytes assessed per 10^6 cells; format: ADME, cell-based, Hepatocyte; conditions: Sprague-Dawley, read-out: CLH
[13] = Apparent permeability across apical to basolateral side in human Caco2 cells at 10 uM; format: ADME, cell-based; conditions: Caco-2
[14] = Intrinsic clearance in human hepatocytes assessed per 10^6 cells; format: ADME, cell-based, Hepatocyte; conditions: read-out: CLH
[15] = Half life in rat at 2 mg/kg, iv; format: ADME, organism-based; set-up: dose 2 mg/kg, route intravenous; conditions: in vivo
[16] = Apparent permeability across basolateral to apical side in human Caco2 cells at 10 uM; format: ADME, cell-based; conditions: Caco-2
[17] = Thermodynamic solubility of the compound; conditions: Therm_solubility
[18] = Clearance in dog at 1 mg/kg, iv and 1 mg/kg, po; format: ADME, organism-based, Canis lupus familiaris; conditions: in vivo
[19] = Fraction unbound in human; format: ADME, organism-based; conditions: in vivo
[20] = Renal elimination in rat at 2 mg/kg, iv; format: ADME, organism-based; set-up: dose 2 mg/kg, route intravenous; conditions: urine, read-out: Ae
[21] = target: T1, A disintegrin and metalloproteinase with thrombospondin motifs 1 (Homo sapiens) (UniProt Q9UHI8); assay: Inhibition of ADAM-TS1 dimethoxyfluorescein-Ser-Pro-Leu-Ala-Gln-Ala- Val-Arg-ser-Ser-Arg-Cys-fluorescein
T1 sequence (whole entry): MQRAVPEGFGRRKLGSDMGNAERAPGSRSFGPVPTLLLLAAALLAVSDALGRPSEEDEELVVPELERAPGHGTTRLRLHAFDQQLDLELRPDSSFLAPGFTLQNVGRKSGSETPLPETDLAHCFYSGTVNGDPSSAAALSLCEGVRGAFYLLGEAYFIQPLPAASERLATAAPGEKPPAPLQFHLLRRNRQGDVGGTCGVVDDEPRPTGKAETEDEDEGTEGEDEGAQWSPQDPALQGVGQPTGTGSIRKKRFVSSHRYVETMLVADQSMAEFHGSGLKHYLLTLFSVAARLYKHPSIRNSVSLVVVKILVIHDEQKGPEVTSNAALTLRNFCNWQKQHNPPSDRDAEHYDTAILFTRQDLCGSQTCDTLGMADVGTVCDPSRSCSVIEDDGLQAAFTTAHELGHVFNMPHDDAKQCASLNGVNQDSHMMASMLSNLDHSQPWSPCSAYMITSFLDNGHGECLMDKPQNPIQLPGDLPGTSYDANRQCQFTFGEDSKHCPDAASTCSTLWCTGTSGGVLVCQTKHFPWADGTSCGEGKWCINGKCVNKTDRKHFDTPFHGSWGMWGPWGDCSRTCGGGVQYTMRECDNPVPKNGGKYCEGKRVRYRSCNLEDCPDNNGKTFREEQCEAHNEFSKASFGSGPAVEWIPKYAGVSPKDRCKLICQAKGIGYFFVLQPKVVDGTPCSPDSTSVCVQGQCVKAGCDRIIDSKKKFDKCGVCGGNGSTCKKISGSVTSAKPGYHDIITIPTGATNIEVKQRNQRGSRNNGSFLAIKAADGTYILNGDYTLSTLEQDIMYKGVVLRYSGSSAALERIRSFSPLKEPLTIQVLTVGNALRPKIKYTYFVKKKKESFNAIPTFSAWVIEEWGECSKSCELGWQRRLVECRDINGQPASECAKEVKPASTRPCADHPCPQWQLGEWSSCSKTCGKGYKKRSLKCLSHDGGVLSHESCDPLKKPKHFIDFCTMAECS

[22] = Fraction unbound in rat; format: ADME, organism-based; conditions: in vivo
[23] = Volume of distribution at steady state in dog at 1 mg/kg, iv and 1 mg/kg, po; format: ADME, organism-based, Canis lupus familiaris; conditions: in vivo, read-out: Vdss

## CN1CCC(NC(=O)c2ccc(Oc3ccc(C#C[C@]4(O)CN5CCC4CC5)cc3)cc2)CC1
[1]
  IC50: 0.074 µM
[2]
  IC50: 7.3 µM
[3]
  pIC50: < 5
[3]; read-out: IC50
  IC50: > 10 µM
[4]
  fraction unbound: 0.47
[5]
  Vd: 12.6 L/kg
[6]
  half-life: 23 h
[7]
  bioavailability: 47%
[8]
  EC50: 8 µM
[9]
  microsomal CLint: 2.6 µL/min/mg
[10]
  pIC50: < 5
[10]; read-out: IC50
  IC50: > 10 µM
[11]
  bioavailability: 2%
[12]
  hepatocyte CLint: < 2 µL/min/1e6 cells
[13]
  Papp A→B at 10 µM: 0.3 ×10⁻⁶ cm/s
[14]
  hepatocyte CLint: < 2 µL/min/1e6 cells
[15]
  half-life: 10.1 h
[16]
  Papp B→A at 10 µM: 7.4 ×10⁻⁶ cm/s
[17]
  solubility thermodynamic: > 2000 µM
[18]
  clearance: 3.6 mL/min/kg
[19]
  fraction unbound: 0.41
[20]
  dose excreted: < 1%
[21]
  INH: > 100 µM
[22]
  fraction unbound: 0.73
[23]
  Vd: 6.6 L/kg
